Experimental data published in patent US9464084B2, “P2X7 modulators” (Janssen Pharmaceutica NV, priority 2013, dated 2016).

Experiments:
P2X7 [1] = biological target: T1, P2X7 (Homo sapiens (Human), UniProt Q99572); test: P2X7 antagonism in human PBMCs (LPS + Bz-ATP induced IL-1β release, ELISA); format: cell-based; details: compound 10 μM, LPS 30 ng/ml, Bz-ATP 0.5 mM;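 also: PBMCs from donor human blood, with a further 1.5 h incubation of the cells in the assay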
Description: Human blood was collected using a blood donor program. PBMCs were isolated from blood using a Ficoll density gradient technique. Briefly, blood was laid on Ficoll solution and centrifuged at RT for 20 minutes at 2000 rpm. The buffy layer (between red blood cells and plasma) was carefully collected by aspiration, washed with PBS and centrifuged again at 1500 rpm for 15 minutes. The resulting cell pellet was washed and plated on 96 well-plates for experiments. For the Mouse/Human Whole Blood experiments, 150 μl of either mouse or human blood was platted on 96 well-plates. Lipopolysaccharide (LPS) (30 ng/ml) was added to each well and incubated for 1 hour. Test compounds were then added and incubated for 30 minutes. The P2X7 agonist, 2′(3′)-O-(4-benzoylbenzoyl) adenosine 5′ triphosphate (Bz-ATP) was then added at a final concentration of 0.5 mM (PBMC) or 1 mM (blood). Cells were incubated for an additional 1.5 hours. At that point, supernatant was collected and stored for IL-1β assay using manufacturer's protocol for enzyme-linked immunosorbent assay (ELISA). Data was expressed as percent control, where control is defined as the difference in IL-1β release in LPS+Bz-ATP samples and LPS only samples. Data was plotted as response (% control) versus concentration to generate IC50 values.

P2X7 [2] = biological target: T1, P2X7; test: Ca2+ flux (FLIPR) in 1321N1 cells expressing recombinant human P2X7 channel; format: cell-based; details: 250 μM BzATP;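 also: Calcium-4 dye-loaded cells exposed to compound for 30 min before agonist addition, fluorescence change read 180 s after agonist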
P2X7 [3] = biological target: T1, P2X7; test: Radioligand binding, tritiated A-804598, human P2X7-1321N1 cell membranes; details: 1 hour at 4° C.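 Also: ki obtained from the binding IC50 after correction for tracer concentration and tracer affinity.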
Description: On the day of the experiment, cell membrane preparations were made according to standard published methods. […] The assay was terminated by filtration (GF/B filters pre-soaked with 0.3% PEI) and washed with washing buffer (Tris-HCl 50 mM). The IC50 generated in the binding assay was corrected for tracer concentration and affinity of the tracer to derive at the affinity (Ki) of the test compounds.

rat P2X7 = rat P2X7 (Rattus norvegicus (Rat), UniProt Q64663); test: Ca2+ flux (FLIPR) in 1321N1 cells expressing recombinant rat P2X7 channel; format: cell-based; details: 250 μM BzATP;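 also: Calcium-4 dye fluorescence change read 180 s after agonist addition, following 30 min cell preincubation with test compound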
Chain of rat P2X7 (Q64663 whole entry): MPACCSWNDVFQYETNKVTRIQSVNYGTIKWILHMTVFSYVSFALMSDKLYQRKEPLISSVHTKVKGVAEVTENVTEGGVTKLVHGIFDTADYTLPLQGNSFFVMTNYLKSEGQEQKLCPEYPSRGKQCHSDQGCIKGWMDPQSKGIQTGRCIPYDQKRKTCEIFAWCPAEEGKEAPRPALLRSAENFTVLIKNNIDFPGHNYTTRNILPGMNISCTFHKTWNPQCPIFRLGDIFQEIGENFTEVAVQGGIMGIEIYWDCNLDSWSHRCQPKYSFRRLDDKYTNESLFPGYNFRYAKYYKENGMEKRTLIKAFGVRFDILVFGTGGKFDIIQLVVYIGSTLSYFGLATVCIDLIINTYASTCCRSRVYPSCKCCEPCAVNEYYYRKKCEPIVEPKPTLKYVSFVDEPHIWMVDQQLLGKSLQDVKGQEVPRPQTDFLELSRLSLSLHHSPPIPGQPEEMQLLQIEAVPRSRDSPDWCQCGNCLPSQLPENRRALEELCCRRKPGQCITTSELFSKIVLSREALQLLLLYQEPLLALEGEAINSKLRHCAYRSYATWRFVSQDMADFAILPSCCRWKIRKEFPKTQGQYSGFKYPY
Description: Cells were seeded at a density of 25000 cells/well (96-well clear bottom black walled plates) in 100 μl volume/well. On the day of the experiment, cell plates were washed with assay buffer, containing (in mM): 130 NaCl, 2 KCl, 1 CaCl2, 1 MgCl2, 10 HEPES, 5 glucose; pH 7.40 and 300 mOs. After the wash, cells were loaded with the Calcium-4 dye (Molecular Device) and incubated in the dark for 60 minutes. Test compounds were prepared at 250× the test concentration in neat DMSO. Intermediate 96-well compound plates were prepared by transferring 1.2 μL of the compound into 300 μL of assay buffer. A further 3× dilution occurred when transferring 50 μL/well of the compound plate to 100 μL/well in the cell plate. Cells were incubated with test compounds and dye for 30 minutes. […] The fluorescence change was measured 180 seconds after adding the agonist.

T1 sequence (Q99572 whole entry): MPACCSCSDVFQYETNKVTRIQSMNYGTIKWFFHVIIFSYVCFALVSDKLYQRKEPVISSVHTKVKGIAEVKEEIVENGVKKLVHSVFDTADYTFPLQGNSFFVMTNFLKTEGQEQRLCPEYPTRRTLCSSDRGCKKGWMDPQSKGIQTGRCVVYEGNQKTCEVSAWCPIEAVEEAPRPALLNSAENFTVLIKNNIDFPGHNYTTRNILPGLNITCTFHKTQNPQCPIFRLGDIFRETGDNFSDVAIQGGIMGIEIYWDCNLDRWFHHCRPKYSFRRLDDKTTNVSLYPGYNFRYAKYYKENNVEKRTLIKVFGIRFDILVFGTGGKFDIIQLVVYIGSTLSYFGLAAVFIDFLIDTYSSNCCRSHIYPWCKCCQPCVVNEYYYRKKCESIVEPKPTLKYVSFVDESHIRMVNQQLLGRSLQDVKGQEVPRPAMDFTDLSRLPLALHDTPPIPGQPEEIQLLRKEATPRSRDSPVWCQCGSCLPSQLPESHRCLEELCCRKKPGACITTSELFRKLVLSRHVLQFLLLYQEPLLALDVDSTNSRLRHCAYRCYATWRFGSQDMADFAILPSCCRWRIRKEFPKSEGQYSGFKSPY

Structure (SMILES) | PBMC 10 μM (% control) (P2X7 [1]) | IC50 (P2X7 [2]) [µM] | Ki (P2X7 [3]) [µM] | IC50 (rat P2X7) [µM]
CC1c2nnn(-c3cnccn3)c2CCN1C(=O)c1ccc(Cl)cc1F (stereo not shown) [Example 274, (4-chloro-2-fluorophenyl)(4-methyl-1-(pyrazin-2-yl)-6,7-dihydro-1H-[1,2,3]triazolo[4,5-c]pyridin-5(4H)-yl)methanone] | −4.8 | 0.0745 | 0.0417 | 1.88
CC1c2nnn(-c3ncccn3)c2CCN1C(=O)c1ccc(Cl)cc1F (stereo not shown) [Example 275, (4-chloro-2-fluorophenyl)(4-methyl-1-(pyrimidin-2-yl)-6,7-dihydro-1H-[1,2,3]triazolo[4,5-c]pyridin-5(4H)-yl)methanone] | −8.3 | 0.0469 | 0.0245 | 0.673
Cc1c(C(=O)N2CCc3c(nnn3-c3cnccn3)C2)cccc1C(F)(F)F [Example 276, (2-methyl-3-(trifluoromethyl)phenyl)(1-(pyrazin-2-yl)-6,7-dihydro-1H-[1,2,3]triazolo[4,5-c]pyridin-5(4H)-yl)methanone] | −0.9 | 0.0064 | 0.0058 | 0.869
Cc1c(C(=O)N2CCc3c(nnn3-c3cnccn3)C2C)cccc1C(F)(F)F (stereo not shown) [Example 278, (4-methyl-1-(pyrazin-2-yl)-6,7-dihydro-1H-[1,2,3]triazolo[4,5-c]pyridin-5(4H)-yl)(2-methyl-3-(trifluoromethyl)phenyl)methanone] | −19.5 | 0.0072 | 0.0126 | 0.0923
CC1c2nnn(-c3cnccn3)c2CCN1C(=O)c1ccc(Cl)cc1Cl (stereo not shown) [Example 279, (2,4-dichlorophenyl)(4-methyl-1-(pyrazin-2-yl)-6,7-dihydro-1H-[1,2,3]triazolo[4,5-c]pyridin-5(4H)-yl)methanone] | −16.9 | 0.0086 | 0.0115 | 0.439
O=C(c1ccc(Cl)cc1F)N1CCc2c(nnn2-c2ncccn2)C1 [Example 280, (4-chloro-2-fluorophenyl)(1-(pyrimidin-2-yl)-6,7-dihydro-1H-[1,2,3]triazolo[4,5-c]pyridin-5(4H)-yl)methanone] | 3.4 | 0.568 | 0.0631 | 1.23
Cc1c(C(=O)N2CCc3c(nnn3-c3ncccn3)C2)cccc1C(F)(F)F [Example 281, (2-methyl-3-(trifluoromethyl)phenyl)(1-(pyrimidin-2-yl)-6,7-dihydro-1H-[1,2,3]triazolo[4,5-c]pyridin-5(4H)-yl)methanone] | −1.9 | 0.0031 | 0.0023 | 0.163
CC1c2nnn(-c3ncccn3)c2CCN1C(=O)c1ccc(Cl)cc1Cl (stereo not shown) [Example 283, (2,4-dichlorophenyl)(4-methyl-1-(pyrimidin-2-yl)-6,7-dihydro-1H-[1,2,3]triazolo[4,5-c]pyridin-5(4H)-yl)methanone] | −6.3 | 0.0047 | 0.0063 | 0.192
Cc1cc(C)nc(-n2nnc3c2CCN(C(=O)c2cccc(C(F)(F)F)c2Cl)C3C)c1 (stereo not shown) [Example 300, (2-chloro-3-(trifluoromethyl)phenyl)(1-(4,6-dimethylpyridin-2-yl)-4-methyl-6,7-dihydro-1H-[1,2,3]triazolo[4,5-c]pyridin-5(4H)-yl)methanone] | −1.8 | 0.171 | 0.398 | 20.2
Cc1cccc(-n2nnc3c2CCN(C(=O)c2cccc(C(F)(F)F)c2Cl)C3C)n1 (stereo not shown) [Example 302, (2-chloro-3-(trifluoromethyl)phenyl)(4-methyl-1-(6-methylpyridin-2-yl)-6,7-dihydro-1H-[1,2,3]triazolo[4,5-c]pyridin-5(4H)-yl)methanone] | −2.8 | 0.0116 | 0.0316 | 0.0143
